Data published in PMC7659001, “The auxin-inducible degron 2 technology provides sharp degradation control in yeast, mammalian cells, and mice” (Nature Communications, 2020).

Columns and labels:
Type in all cases: cell-based
OsTIR1 [1] = target: T1, OsTIR1 (Oryza sativa subsp. japonica, UniProt P93830+Q7XVM8, Q7XVM8:F74G); assay: mAID-EGFP-NLS reporter degradation dose response in HCT116 cells (DC50)
T1 construct: gene Os04g0395600; with mAID degron (Arabidopsis IAA17); SCF (Skp1-Cul1)

OsTIR1 [2] = target: T2, OsTIR1 (Oryza sativa subsp. japonica, UniProt P93830+Q7XVM8); assay: as above
T2 construct: gene Os04g0395600; with mAID degron (Arabidopsis IAA17); SCF (Skp1-Cul1)
T2 sequence (P93830 whole entry, one chain of several): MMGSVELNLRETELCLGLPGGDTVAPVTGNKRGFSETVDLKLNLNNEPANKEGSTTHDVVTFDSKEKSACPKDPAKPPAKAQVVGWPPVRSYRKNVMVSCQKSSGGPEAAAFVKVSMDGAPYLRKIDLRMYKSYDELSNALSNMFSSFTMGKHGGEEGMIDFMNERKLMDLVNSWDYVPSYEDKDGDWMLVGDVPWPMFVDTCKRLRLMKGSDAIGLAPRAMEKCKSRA

OsTIR1 [3] = target: T3, OsTIR1 (Oryza sativa, UniProt Q7XVM8); assay: OsTIR1(WT) level in HCT116 cells raised by the inhibitor (suppressed autodegradation)
T3 construct: gene Os04g0395600
T3 sequence (Q7XVM8 1-575): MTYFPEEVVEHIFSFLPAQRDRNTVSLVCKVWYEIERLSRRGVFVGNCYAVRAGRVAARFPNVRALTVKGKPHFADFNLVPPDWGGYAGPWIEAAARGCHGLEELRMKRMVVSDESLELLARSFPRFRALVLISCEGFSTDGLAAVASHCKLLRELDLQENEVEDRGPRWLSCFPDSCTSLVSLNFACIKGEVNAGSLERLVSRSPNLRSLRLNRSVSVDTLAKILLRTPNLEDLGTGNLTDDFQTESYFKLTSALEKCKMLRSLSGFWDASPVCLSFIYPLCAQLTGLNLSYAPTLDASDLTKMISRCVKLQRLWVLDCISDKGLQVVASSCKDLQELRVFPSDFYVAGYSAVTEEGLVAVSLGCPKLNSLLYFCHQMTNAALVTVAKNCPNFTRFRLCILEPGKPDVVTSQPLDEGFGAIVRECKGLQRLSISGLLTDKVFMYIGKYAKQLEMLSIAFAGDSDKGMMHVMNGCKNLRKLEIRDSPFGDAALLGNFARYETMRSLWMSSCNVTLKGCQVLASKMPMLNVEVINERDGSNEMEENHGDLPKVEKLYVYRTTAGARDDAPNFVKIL

T1 sequence (Q7XVM8 whole entry F74G): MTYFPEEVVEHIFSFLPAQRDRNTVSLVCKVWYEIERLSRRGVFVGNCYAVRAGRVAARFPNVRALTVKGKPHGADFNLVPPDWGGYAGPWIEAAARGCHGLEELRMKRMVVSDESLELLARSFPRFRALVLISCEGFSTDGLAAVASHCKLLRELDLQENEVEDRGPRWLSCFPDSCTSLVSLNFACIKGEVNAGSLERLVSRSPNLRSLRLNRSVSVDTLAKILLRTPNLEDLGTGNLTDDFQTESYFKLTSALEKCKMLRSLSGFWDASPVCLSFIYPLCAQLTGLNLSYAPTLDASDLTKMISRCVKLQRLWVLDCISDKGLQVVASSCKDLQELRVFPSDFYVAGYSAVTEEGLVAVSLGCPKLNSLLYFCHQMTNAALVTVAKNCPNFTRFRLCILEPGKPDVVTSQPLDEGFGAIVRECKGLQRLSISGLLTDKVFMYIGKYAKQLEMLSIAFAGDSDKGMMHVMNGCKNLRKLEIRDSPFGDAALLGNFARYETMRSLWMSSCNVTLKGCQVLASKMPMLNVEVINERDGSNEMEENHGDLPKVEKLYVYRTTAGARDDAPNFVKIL
T1 sequence (P93830 65-132 limits assumed): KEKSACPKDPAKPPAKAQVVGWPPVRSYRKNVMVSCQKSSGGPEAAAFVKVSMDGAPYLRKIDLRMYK

For `O=C(O)Cc1c[nH]c2ccc(-c3ccccc3)cc12` [5-Ph-IAA, 5-phenyl-indole-3-acetic acid], the DC50 (OsTIR1 [1]) was 0.45 ± 0.01 nM.

In the case of `O=C(O)Cc1c[nH]c2ccccc12` [IAA, indole-3-acetic acid], the DC50 (OsTIR1 [2]) is reported as 300 ± 30 nM.

`Cc1ccc(C(=O)CC(C(=O)O)c2c[nH]c3ccccc23)c(C)c1` (stereo not drawn) [auxinole] was tested, and the “OsTIR1(WT) level in HCT116 cells raised by the inhibitor (suppressed autodegrada)” value (OsTIR1 [3]) was “The expression level of OsTIR1(WT) was enhanced by the addition of an OsTIR1 inhibitor auxinole”.
